# Reference: patent US20140065610A1, “METHOD FOR PREDICTING CLINICAL BENEFIT IN THE TREATMENT OF NEURODEVELOPMENTAL, NEUROLOGICAL OR NEUROPSYCHIATRIC DISORDERS” (priority 2011, published 2014)
# How the values were obtained:
# Assay type in all cases: in vivo, human
# [1] = tested on: adults with schizophrenia with predominantly negative symptoms; experiment: Phase II GRI schizophrenia trial: PANSS negative symptom factor score responder rate; details: after 8 weeks
# Procedure: FIG. 3: Response rates of dichotomized PANSS negative symptom factor score (response defined as ≧20% drop from baseline) at week 8. Shaded background bars are response rates in overall per protocol population. Solid grey bars are response rates in CFHR1 stratified subpopulations using natural cut-off for CFHR1.
# (§1) A Phase II study was performed in adults with schizophrenia with predominantly negative symptoms. The individuals were clinically stable and on stable treatment with second generation antipsychotics. The study was conducted at multiple sites in Brazil, France, Germany, Hungary, Japan, Mexico, Poland, Russia, and the US according to ICH Guidelines for Good Clinical Practice (ClinicalTrials.gov Identifier: NCT00616798). The study protocol was approved by the health authorities of each country and the respective ethic committees of each site. All 323 patients had provided written consent to participate in the study and 224 patients had consented to the collection and use of serum samples for exploratory biomarker analysis. After a screening and a 4-week run-in period, patients were randomized to double-blind adjunctive treatment with placebo, 10 mg, 30 mg, or 60 mg of GRI given once a day for a duration of 8 weeks, followed by 4 week follow-up period. Similar percentages of patients in the four treatment arms completed the study.
# (§2) Patients were assessed at screening, week −2, baseline, weeks 1, 2, 4, 6, 8, 10 and 12. Assessments included the PANSS, Clinical Global Impression—Severity of Illness (CGI-S) and Clinical Global Impression-Global Improvement (CGI-I) for overall psychopathology 56, CGI-S and CGI-I of Negative Symptoms (CGI-S-N, CGI-I-N) for assessment of negative symptoms only 57, and standard examinations of extrapyramidal symptoms (BAS58, SAS59, AIMS60). The primary efficacy variable assessing effects on negative symptoms was the change from baseline in the PANSS negative symptom factor score 64. Secondary efficacy variables were i) proportion of patients showing a clinical response in negative symptom defined as a 20% change from baseline in the PANSS negative symptom factor score and ii) CGI-I-N. Additional analyses included change in PANSS total score, remaining PANSS factor scores 64 CGI-S and CGI-I.
# For the 10 mg arm the response rate in the CFHR1-high group was 88% compared to 69% in the non-stratified group, and for the 30 mg arm the response rate in the CFHR1-high group was 78% compared to 66% in the non-stratified group.
# [2] = tested on: adults with schizophrenia with predominantly negative symptoms; experiment: Phase II GRI schizophrenia trial: CGI-I negative symptoms responder rate
# Description: FIG. 4: Response rates of dichotomized CGI-I negative symptoms rating score (response defined as “much improved” or “very much improved”) at week 8. Shaded background bars are response rates in overall per protocol population. Solid grey bars are response rates in CFHR1 stratified subpopulations using natural cut-off for CFHR1.
# FIG. 6: Response rates of dichotomized CGI-I negative symptoms rating score (response defined as “much improved” or “very much improved”) at week 8. Shaded background bars are response rates in overall per protocol population. Solid grey bars are response rates in CFHR1 stratified subpopulations using CFHR1/CFH ratio, with L (low) corresponding to CFHR1/CFH ratio below 0.01, M (medium) corresponding to CFHR1/CFH ratio above 0.01 and below 0.08 and with H (high) corresponding to CFHR1/CFH ratio above 0.08.
# FIG. 9: Response rates of dichotomized CGI-I negative symptoms rating score (response defined as “much improved” or “very much improved”) at week 8. Shaded background bars are response rates in overall per protocol population from those who had consented for DNA sample. Solid grey bars are response rates in CFHR1 stratified subpopulations using genetic status of CFHR1 allele.
# as §1, §2
# As a secondary endpoint in the clinical trial the Clinical Global Impression (CGI) improvement of negative symptoms between baseline and week 8 evaluation was used. This outcome measure was treated as a binary variable. […] The analysis was performed on the combined placebo, 10 mg and 30 mg biomarker population using the per protocol (PP) population. Explanatory variables for this analysis are the baseline measurements of all measured proteins, the treatment (placebo or pooled 10 mg/30 mg treatment) and the treatment-protein interaction. A logistic regression model was used as predictor.
# For the 10 mg arm the response rate in the CFHR1-high group was 69% compared to 39% in the non-stratified group, and for the 30 mg arm the response rate in the CFHR1-high group was 67% compared to 45% in the non-stratified group. […]
# [3] = tested on: adults with schizophrenia with predominantly negative symptoms; experiment: Phase II GRI schizophrenia trial: change of PANSS negative symptom factor score from baseline
# Procedure: FIG. 2: Change of PANSS negative symptom factor score from baseline in all patients (FIG. 2(a)) and in CFHR1-low patients (FIG. 2(b)) and CFHR1-high patients (FIG. 2(c)) using natural cutoff for CFHR1. Patients with serum concentration ≦28 ug/ml were classified as CFHR1-low and patients with serum concentration >28 ug/ml were classified as CFHR1-high. Estimates of expected response and standard error bars from MMRM analysis. Dash-dot line and circle Placebo; solid line and squares 10 mg GRI; solid line and upward-pointing triangles 30 mg GRI; dashed line and diamonds 60 mg GRI.
# as §1, §2
# Results for the overall patient cohort are shown in the top panel, for the CFHR1-low patients in the middle panel and for the CFHR1-high patients in the lower panel. […]
# [4] = 10 mg arm, non-stratified group
# [5] = 30 mg arm, non-stratified group
structure (smiles),measurement,setting,value
"C[C@H](Oc1ccc(S(C)(=O)=O)cc1C(=O)N1CCN(c2ncc(C(F)(F)F)cc2F)CC1)C(F)(F)F [GRI, [4-(3-fluoro-5-trifluoromethyl-pyridin-2-yl)-piperazin-1-yl]-[5-methanesulfonyl-2-((S)-2,2,2-trifluoro-1-methyl-ethoxy)-phenyl]-methanone]","response rate, PANSS negative symptom factor score (at least 20% decrease from baseline)","[1]; 10 mg arm, CFHR1-high group",88%
same,"response rate, PANSS negative symptom factor score (at least 20% decrease from baseline)",[1]; [4],69%
same,"response rate, PANSS negative symptom factor score (at least 20% decrease from baseline)","[1]; 30 mg arm, CFHR1-high group",78%
same,"response rate, PANSS negative symptom factor score (at least 20% decrease from baseline)",[1]; [5],66%
same,"response rate, CGI of negative symptoms","[2]; 10 mg arm, CFHR1+/+ group (genetic status)",57%
same,"response rate, CGI of negative symptoms","[2]; 10 mg arm, CFHR1-high group (natural cut-off 28 ug/ml), week 8",69%
same,"response rate, CGI of negative symptoms","[2]; 10 mg arm, H subgroup (CFHR1/CFH ratio above 0.08)",69%
same,"response rate, CGI of negative symptoms","[2]; 10 mg arm, L group (CFHR1/CFH ratio below 0.01), small sample size",0%
same,"response rate, CGI of negative symptoms","[2]; 10 mg arm, M subgroup (CFHR1/CFH ratio medium)",19%
same,"response rate, CGI of negative symptoms","[2]; 10 mg arm, non-stratified group of patients who consented for DNA sample",39%
same,"response rate, CGI of negative symptoms","[2]; 10 mg arm, non-stratified serum subgroup, week 8",39%
same,"response rate, CGI of negative symptoms","[2]; 30 mg arm, CFHR1+/+ group (genetic status)",67%
same,"response rate, CGI of negative symptoms","[2]; 30 mg arm, CFHR1-high group (natural cut-off 28 ug/ml), week 8",67%
same,"response rate, CGI of negative symptoms","[2]; 30 mg arm, H subgroup (CFHR1/CFH ratio above 0.08)",67%
same,"response rate, CGI of negative symptoms","[2]; 30 mg arm, L group (CFHR1/CFH ratio below 0.01), small sample size",0%
same,"response rate, CGI of negative symptoms","[2]; 30 mg arm, M subgroup (CFHR1/CFH ratio medium)",28%
same,"response rate, CGI of negative symptoms","[2]; 30 mg arm, non-stratified group of patients who consented for DNA sample",46%
same,"response rate, CGI of negative symptoms","[2]; 30 mg arm, non-stratified serum subgroup, week 8",45%
same,"response rate, CGI of negative symptoms","[2]; 60 mg arm, H subgroup (CFHR1/CFH ratio above 0.08)",33%
same,"response rate, CGI of negative symptoms","[2]; 60 mg arm, L group (CFHR1/CFH ratio below 0.01), small sample size",100%
same,"response rate, CGI of negative symptoms","[2]; 60 mg arm, M subgroup (CFHR1/CFH ratio medium)",25%
same,"response rate, CGI of negative symptoms","[2]; 60 mg arm, non-stratified serum subgroup, week 8",34%
same,"effect size, change in PANSS negative symptom factor score from baseline","[3]; 10 mg arm, CFHR1-high group (serum CFHR1 >28 ug/ml), 8 weeks, vs placebo",−1.01
same,"effect size, change in PANSS negative symptom factor score from baseline",[3]; [4],−0.42
same,"effect size, change in PANSS negative symptom factor score from baseline","[3]; 30 mg arm, CFHR1-high group (serum CFHR1 >28 ug/ml)",−0.76
same,"effect size, change in PANSS negative symptom factor score from baseline",[3]; [5],−0.47
